Test results published in article PMC10644391, “Targeted Reversible Covalent Modification of a Noncatalytic Lysine of the Krev Interaction Trapped 1 Protein Enables Site-Directed Screening for Protein–Protein Interaction Inhibitors” (ACS Pharmacology & Translational Science, 2023).
Values joined by “and” are separate entries in the source; they are usually repeats but may differ in a detail not shown here. Equal entries are not always repeated.

Columns and labels:
[1] = target: T1, HEG1-KRIT1 PPI (Homo sapiens, UniProt O00522); test: HEG1-KRIT1 PPI fluorescence polarization (FP) time-resolved assay; assay type: biochemical; conditions: means ± SD, n = 3; for IC50: fluorescence polarization assay after 4 h of incubation; for HEG1-KRIT1 PPI Assay kon / koff: global fit across six or more inhibitor concentrations; for Ki: global fit, unit in Figure 2E, read-out: HEG1-KRIT1 PPI Assay Ki (koff/kon)
T1 construct: a recombinant FERM domain (residues 417–736) of KRIT1; made in house; host or cells: E. coli
Description: To evaluate the binding kinetics of HNA inhibitors, a fluorescence polarization (FP) time-resolved assay that uses a recombinant FERM domain (residues 417–736) of KRIT1 and a fluorescence-tagged HEG1 cytoplasmic tail (Cy5-HEG1 7-mer peptide) was developed (Supporting Information). Using HNA as a test compound, the FP data, expressed as millipolarization (mP) units, were obtained every 10 min over the course of 4–7 h. […] Thus, for practical purposes, a 4-h incubation time was established as the standard assay time for non-kinetic IC50 evaluations.
Fluorescence Polarization Assay and Optimization
The KRIT1 FERM domain (residues 417-736) was cloned into plasmid and recombinantly expressed in E. coli as previously described,1 while the Cy5-HEG1 7- mer peptide bearing the Cy5 dye as fluorescent probe was prepared by and purchased from GenScript (New Jersey, US). HEPES- buffered saline (HBS) buffer was supplemented (0.01%) with detergent Triton X -100 to minimize protein adsorption to the microplate. The assay was setup in a 96-well plate plated with 80 nM KRIT1, 4 nM Cy5- HEG1 probe, and either non-tagged HEG1 peptide or HNA as inhibitor (in 5% DMSO). To account for background fluorescence that could interfere with the assay, background wells with only test compound and Cy5 -HEG1 probe (no KRIT1) were also plated. The FP data, expressed as millipolarization (mP) units, were obtained […]
course of 4-7 hours (for kinetic characterization) using a Tecan Spark® Multimode Microplate Reader. The background mP (no KRIT1) was subtracted from mP to account for background fluorescence. All assays were done in triplicates.
Several FP assay conditions were optimized. First, the HEG1 probe engagement of KRIT1 was examined and its interaction was determined to be rapid equilibrium, thus any observed time dependance in response when an inhibitor displaces the probe is the result of inhibitor exchange kinetics and not that of the probe. Next, the affinity of KRIT1 for the probe (Kd) was examined by following the change in polarization signal as a function of a matrix of five probe concentrations and four KRIT1 concentrations (Figure S1B ). A global fit of equation 3 to polarization responses of the inhibitor vs KRIT1 concentration […]
even after 7 hours of incubation. For practical purposes, we have chosen 4 hours as our standard incubation time since it appeared that most of the inhibition has been reached at this time point. The kinetic characterization of HNA as a HEG1- KRIT1 inhibitor will be discussed in greater detail in the kinetic section […]
values to those obtained from the flow cytometry assay. Finally, to assess the robustness of the FP assay, […]
a robust assay) representing an excellent assay with clear differences between positive and negative controls.2 Evaluation of HEG1-KRIT1 inhibitors prior to the optimization of the FP assay were done using flow cytometry, while subsequent compounds were evaluated using the FP assay. All subsequent assay plates included HNA as comparison and control.
Figure S1. Optimization of fluorescence polarization (FP) assay.
HEG1-KRIT1 inhibition. (B) Optimization of KRIT1 protein and Cy5 -HEG1 probe concentrations. Dose-response curve of HNA obtained via fluorescence polarization (C) and flow cytometry (D) assays show […]
All assays were tested in technical duplicates or triplicates in at least 2 different

[2] = pKa by potentiometric titration (Sirius T3); assay type: physicochemical; conditions: potentiometric titrations, means ± SD of three titrations
[3] = HEK293 cytotoxicity, resazurin cell viability assay; assay type: cell-based; conditions: human, HEK293 cells, means ± SD, n = 3
Description: Maintenance of HEK293 Cells. HEK293 cell lines (American Type Culture Collection (ATCC)) were cultured in Dulbecco's Modified Eagle Medium (DMEM, Invitrogen) supplemented with 10% heat-inactivated fetal bovine serum (FBS, Gibco) and penicillin-streptomycin (1%). Cells were kept at 37 °C and 5% CO2, and were passaged every 72 hours.
Resazurin Cell Viability Assay. The cytotoxicity in HEK293 cells were determined using a resazurin cell viability assay. Test compounds in DMSO were diluted to 100x desired final assay concentration (maximum concentration of 100 µM) in eight-point dose response. 1 µL of test compounds were plated in a 96-well clear bottom tissue culture microplate. 49 µL of cell culture media was added to each well. Cells were diluted to 4 x 10^5 cells/mL, and 50 µL of this cell suspension was seeded to each well for a total of 2 x 10^4 cells/well. The assay plate was kept at 37 °C and 5% CO 2 for either 4 or 48 hours. At the end of the incubation time, 20 µL of 0.5 mM resazurin sodium salt (Alfa Aesar) solution in PBS was added to each well. The assay plates were incubated further at 37 °C for 2 hours. Fluorescence was measured at 531 nm and 595 nm excitation and emission wavelengths, respectively, using a 2104 EnVision® multilabel plate reader. CC50 values were obtained using sigmoidal curved generated with Prism GraphPad (San Diego, CA). SD values are reported as the standard deviation of the CC50 values of 3 biological replicates. All

[4] = test system: KLF2; test: KLF2 gene expression in HUVECs (RT-qPCR); assay type: cell-based, Human; conditions: HUVEC, 4-h incubation, relative to inactive control (2-hydroxy-1-naphthoic acid), 10-50 µM
Description: (§1) Finally, to confirm target engagement in cell-based conditions, selected HNA derivatives (i.e., 2, 3, and 5) were tested in a functional assay that specifically looks at the downstream effects of inhibiting the interaction between HEG1 and KRIT1, using qPCR. […] Here, the ability of compound 2 and HNA derivatives 3 and 5 to upregulate the same transcription factors in HUVEC after 4 h was measured.
(§2) PCR experiments in endothelial cells
(§3) Cell Culture. Human umbilical vein endothelial cells (HUVECs, Lonza) from passages 5 to 7 were grown on fibronectin‐coated 6-well plates (Corning) in complete EGM‐2 media (Lonza). HNA compounds 2, 3 and 5 were used from stocks of 10 mM in DMSO, which were placed on a rotating block at room temperature for 30 min before being diluted for use in cell culture. Compounds were used at the concentrations indicated (10-50µM) in HUVEC medium and added to cell culture wells for 4 hours. Control cells were treated with the same concentration of either DMSO (vehicle) or the non-active compound V for the same duration. Cells were maintained in a humidified incubator at 37°C and 5% CO2.
(§4) RT-qPCR. HUVECs (Lonza) using TRIzol reagent (Thermo Fisher Scientific) and the Quick-RNA MiniPrep Kit (Zymo Research) according to the manufacturer’s instructions. cDNA was transcribed from a total of 1 µg RNA per sample using qScript™ cDNA SuperMix (QuantaBio) according to the manufacturer’s protocol. KAPA SYBR FAST qPCR master mix (Roche) was used on a CFX Connect Real-Time PCR Detection System (BioRad) to determine the relative levels of human gene trascripts. The following primer sets were used: KLF2 (forward) AGACCACGATCCTCCTTGA and (reverse) […]
(§5) […]; KLF4, (forward) […] and (reverse)
(§6) ; and GAPDH (forward) […] and
(§7) (reverse) […] used as internal control. The 2−ΔΔCT method was used to analyze relative changes between vehicle control and test compounds for each data set.

[5] = test system: KLF4; test: KLF4 gene expression in HUVECs (RT-qPCR); assay type: cell-based, Human; conditions: HUVEC, 4-h incubation, relative to inactive control (2-hydroxy-1-naphthoic acid), 10-50 µM
Description: as §1, §2, §3, §4, §5, §6, §7

[6] = test system: KLF2; design: method as in PMID 33977234; conditions: HUVECs, 24 h of incubation; cited from earlier work
[7] = test system: KLF4; design: method as in PMID 33977234; conditions: HUVECs, 24 h of incubation; cited from earlier work
[8] = test system: HEG1-KRIT1 PPI; conditions: prior SAR studies; read-out: HEG1-KRIT1 PPI inhibition IC50; cited from earlier work

T1 sequence (O00522 417-736): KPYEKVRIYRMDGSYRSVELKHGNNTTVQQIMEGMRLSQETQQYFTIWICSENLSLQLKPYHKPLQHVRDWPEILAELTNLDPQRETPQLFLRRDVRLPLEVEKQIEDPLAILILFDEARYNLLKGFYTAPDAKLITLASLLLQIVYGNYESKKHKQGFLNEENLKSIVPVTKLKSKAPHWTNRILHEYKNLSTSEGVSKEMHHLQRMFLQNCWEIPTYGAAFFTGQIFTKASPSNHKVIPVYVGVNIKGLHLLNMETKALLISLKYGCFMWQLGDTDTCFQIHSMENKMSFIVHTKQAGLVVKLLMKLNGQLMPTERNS

Compound | IC50 [1] [nM] | HEG1-KRIT1 PPI Assay kon [1] | koff [1] [s⁻¹] | Ki [1] [nM] | pKa [2] | CC50 at 48 h [3] [nM] | KLF2 mRNA expression [4] | KLF4 mRNA expression [5] | KLF2 expression [6] | KLF4 expression [7] | IC50 [8] [nM]
CN(C)c1ccc2c(C=O)c(O)ccc2c1 [Compound 11] | 12100 ± 4610 | 9.64 M⁻¹ s⁻¹ and 9.64 ± 2.08 M⁻¹ s⁻¹ | 0.00011 | 11400 ± 4080 |  | > 100000 |  |  |  |  | 
COc1ccc2c(C=O)c(O)ccc2c1 [Compound 2, 2-hydroxy-6-methoxy-1-naphthaldehyde] | 3960 ± 840 | 14 M⁻¹ s⁻¹ and 14 ± 0.83 M⁻¹ s⁻¹ | 1.54e-05 | 1100 ± 320 | 7.42 ± 0.03 | > 100000 | increased KLF2 and KLF4 expression without reaching statistical significance | increased KLF2 and KLF4 expression without reaching statistical significance | upregulation | upregulation | 
O=Cc1c(O)ccc2cc(-c3c[nH]nn3)ccc12 [Compound 14] | 12000 ± 1090 | 4.58 M⁻¹ s⁻¹ and 4.58 ± 0.444 M⁻¹ s⁻¹ | 1.99e-05 | 4350 ± 1770 | 7.38 ± 0.12 | > 100000 |  |  |  |  | 
C=CCOc1ccc2c(C=O)c(O)ccc2c1 [Compound 9] | 2750 ± 190 | 24.6 ± 1.81 M⁻¹ s⁻¹ | 2.29e-05 | 930 ± 240 | 7.34 ± 0.12 | 59200 ± 12900 |  |  |  |  | 
O=Cc1ccccc1O [salicylaldehyde, reference compound] |  |  |  |  |  |  |  |  |  |  | > 500000
O=Cc1c(O)ccc2cc(OC(F)F)ccc12 [Compound 10] | 2210 ± 680 | 29.7 ± 2.5 M⁻¹ s⁻¹ | 3.08e-05 | 1030 ± 250 | 6.95 ± 0.12 | > 100000 |  |  |  |  | 

The remaining compounds from weak to strong by IC50 [1], led by results:

IC50 [1] [nM] | HEG1-KRIT1 PPI Assay kon [1] | koff [1] [s⁻¹] | Ki [1] [nM] | pKa [2] | Compound | CC50 at 48 h [3] [nM] | KLF2 mRNA expression [4] | KLF4 mRNA expression [5] | KLF2 expression [6] | KLF4 expression [7] | IC50 [8] [nM]
1830 ± 820 | 35.6 ± 5 M⁻¹ s⁻¹ | 2.97e-05 | 840 ± 330 | 7.3 ± 0.06 | O=Cc1c(O)ccc2cc(Cl)ccc12 [Compound 8] | ~100000 |  |  |  |  | 
1420 ± 320 | 43.1 ± 5.83 M⁻¹ s⁻¹ | 4.36e-05 | 1010 ± 290 | 7.02 ± 0.08 | CC#Cc1ccc2c(C=O)c(O)ccc2c1 [Compound 12] | ~100000 |  |  |  |  | 
1220 ± 430 | 50.8 ± 5 M⁻¹ s⁻¹ | 3.19e-05 | 630 ± 160 | 7.17 ± 0.09 | C=CCc1ccc2c(C=O)c(O)ccc2c1 [Compound 7] | 33900 ± 5400 |  |  |  |  | 
1180 ± 390 | 60.3 ± 7.5 M⁻¹ s⁻¹ | 5e-05 | 830 ± 200 | 7.75 ± 0.08 | O=Cc1c(O)ccc2cc(-c3ccsc3)ccc12 [Compound 15] | 38400 ± 6100 |  |  |  |  | 
940 ± 120 | 52.8 ± 9.17 M⁻¹ s⁻¹ | 4.97e-05 | 940 ± 320 | 7.5 ± 0.02 | O=Cc1c(O)ccc2ccc(-c3ccco3)cc12 [Compound 6] | 41200 ± 6700 |  |  |  |  | 
790 ± 240 | 112 ± 23.9 M⁻¹ s⁻¹ | 7.28e-05 | 650 ± 240 | 6.76 ± 0.1 | O=Cc1c(O)ccc2cc(-c3ccccc3)ccc12 [Compound 13] | 43500 ± 9400 |  |  |  |  | 
690 ± 110 | 108 ± 20.8 M⁻¹ s⁻¹ | 8.81e-05 | 820 ± 250 | 8.08 ± 0.08 | O=Cc1c(O)ccc2cc(-c3ccco3)ccc12 [Compound 5] | 37100 ± 5200 | significant elevations | significant elevations |  |  | 
650 ± 120 | 179 ± 26.1 M⁻¹ s⁻¹ | 0.000118 | 660 ± 170 | 6.81 ± 0.05 | C#Cc1ccc2c(C=O)c(O)ccc2c1 [Compound 3] | > 100000 | significant elevations | significant elevations |  |  | 
470 ± 110 | 200 ± 30 M⁻¹ s⁻¹ | 0.000114 | 570 ± 140 |  | O=Cc1c(O)ccc2cc(-c3cccs3)ccc12 [Compound 4] | 33900 ± 700 |  |  |  |  | 
240 ± 90 | 232 ± 40.8 M⁻¹ s⁻¹ | 7.28e-05 | 310 ± 90 |  | O=Cc1c(O)ccc2ccc(-c3cccs3)cc12 [Compound 16] | 31400 ± 4200 |  |  |  |  | 
